The source of these data is US20120121736A1, “COMPOSITION FOR TREATING GASTRIC ULCER AND A PROCESS THEREOF” (priority 2010, published 2012).

Test [1] has as its system Cold Restraint Ulcer Model (CRU). The test can be described thus: Cold Restraint Ulcer (CRU) model. The format is in vivo, rats. Here is the method: EXPERIMENT 1: EFFECT ON COLD RESTRAINT ULCERS (CRU) MODEL METHOD: Adult rats of either sex, weighing 150-175 grams are fasted for 24 hours in metallic cages with raised mesh bottoms to prevent coprophagia and were allowed free access to water. The test drugs were administered 45 minutes before immobilizing the animals. The rats were immobilized in the restraint cage and kept at 4° C. in BOD incubator for 2 hours (According to the method of Senay and Levine 1967). The animals were sacrificed immediately after the restraint period. The abdomen was cut opened; stomach was taken out and incised along the greater curvature to observe the gastric lesions with the help of Magnascope (5× magnification) The following arbitrary scoring system was used to grade the severity and intensity of the lesions: 1. Shedding of epithelium=10 2. Petechial and frank hemorrhages=20 3. One or two ulcers=30 4. More than two ulcers=40 5. Perforated ulcers=50 The presence of any of these lesions was considered as a positive ulcerogenic response which has been shown as percentage of rats showing gastric lesions. The severity of ulcers is expressed in terms of ulcer index, which is the mean score of gastric lesions of all the rats in a group. The term Ulcer Index is defined as: Ulcer Index (U. I.)=Us+Up×10−1 where Us=Mean severity of ulcer score and Up=Percentage of animals with Ulcer incidences. The percentage protection is calculated as follows: Percentage protection=(C−T/C)×100. where C=Number of animals showing ulcer response in control group and T=Number of animals showing ulcer response in test group.

Test [2] deals with Ethanol Induced Ulcer Model. Put plainly: Alcohol (ethanol) induced gastric ulcer model. The class given is in vivo, rats. The note with it: in respect to the protection of Omeprazole taken as 100%. As to the method:
EXPERIMENT 4: EFFECT ON ALCOHOL INDUCED GASTRIC ULCERS IN RATS Method: 1. Adult rats of either sex were taken; weighing 150-175 grams were fasted for 24 hours with free access to water.
2. The test drugs were administered (p. o.) 45 minutes before alcohol administration.
3. 1 ml of chilled absolute alcohol was administered (p. o.) to the rats (According to the Wittetal).
4. Immediately after 1 hour, the animals were anesthetized, abdomen was cut opened stomach was taken out and incised along the greater curvature to observe the gastric lesions.
The ulcers are examined under the 5× magnification with the help of magnascope. Absolute ethanol lesions appears as blackish lesions grouped in patches of varying size, usually parallel to the major axis of the stomach.
5. The lengths of the lesions are measured and summated to give a total lesion score, then calculated and expressed in percentage.

In test [3] the test system is pyloric ligation induced Ulcer. Put plainly: Pyloric ligation induced ulcer model. The format is in vivo, rats. As to conditions: in respect to the protection of Omeprazole taken as 100%. Here is the method: EXPERIMENT 5: EFFECT ON PYLORIC LIGATION INDUCED ULCER MODEL Method: 1. Animals were fasted for 24 hours in the raised mesh bottom cages to prevent coprophagia and were allowed free access to water. 2. The control group of rats was feed with the vehicle and the experimental groups with their respective drugs 45 minutes prior to the ligation. 3. The animal was anesthetized, abdomen was cut opened under xiphoid process, and the pyloric portion of the stomach was slightly lifted and ligated avoiding any damage to the adjacent blood vessels (According to the method of Shay et al. 1945). 4. The animals were stitched and kept for 4 hours with free access to water. 5. After 4 hours the animals were sacrificed under ether anesthesia and the stomach was dissected out incised along the greater curvature. 6. The stomach was washed thoroughly and the ulcer index was scored as per in other ulcer models.

For test [4], the system named is histamine induced duodenal ulcer. Put plainly: Histamine induced duodenal ulcer model. The class given is in vivo, Guinea pig. Here is the method:
EXPERIMENT 3: EFFECT ON HISTAMINE INDUCED ULCER MODEL Method:
1. Animals were fasted for 24 hours with access to water.
2. The drug was given orally 1 hour prior to the histamine administration.
3. Histamine was administered in a dose of 0.25 mg/Kg, i. m. at 30 minutes interval for 7 times and it induced 100% duodenal ulceration in guinea pig (According to the method of Watt and Eagleton 1964).
4. The animals were sacrificed after half an hour of last injection under ether anesthesia.
5. The stomach along with duodenum were removed washed thoroughly and examined for the lesions. Ulcer index and protection index were calculated.

For test [5], the system named is Aspirin induced ulcer model. Put plainly: Aspirin induced gastric ulcer model. The format is in vivo, rats. Here is the method:
EXPERIMENT 2: EFFECT ON ASPIRIN INDUCED GASTRIC ULCER MODEL Method: Gastric ulceration was induced by aspirin according to the method of Djahanguiri (1969). Aspirin (150 mg/Kg.) was administered per orally as a suspension in gum-acacia and the animal was sacrificed 5 hr. after the aspirin treatment and the ulcer index with protection index were calculated.

Where [6] appears, read: 10 mg/Kg, standard, protection taken as 100%.

Turning to `COc1ccc2[nH]c([S+]([O-])Cc3ncc(C)c(OC)c3C)nc2c1` (stereo not drawn) [Omeprazole], the “PERCENTAGE PROTECTION” value in test [1] (setting [6]), in test [4] (in respect to the protection of Omeprazole taken as 100%) and in test [5] (setting [6]) was 100% each time. Moreover, the “Ulcer severity (type of lesions) Scores (No. of rats showing lesions/No. of rats tested) 10” value was 3/10 in test [1] (10 = Shedding of epithelium, Omeprazole 10 mg/Kg, p.o.) and 2/6 in test [5] (10 = Shedding of epithelium, Omeprazole 20 mg/Kg, Aspirin 150 mg/Kg p.o.). The “Ulcer severity (type of lesions) Scores (No. of rats showing lesions/No. of rats tested) 20” value was 2/10 in test [1] (20 = Petechial and frank hemorrhages, Omeprazole 10 mg/Kg, p.o.); 1/6 in test [5] (20 = Petechial and frank hemorrhages, Omeprazole 20 mg/Kg, Aspirin 150 mg/Kg p.o.). The “PROTECTION (Percentage protection)” value is 100.0% in test [2] and 100% in test [3]. Besides, the “Volume of gastric fluid” value in test [4] (Omeprazole 10 mg/Kg, p.o.) worked out at 1.0 ± 0.2 mL. Also, the “Ulcer severity (type of lesions) Scores (No. of Guinea pig showing lesions/No. of Guinea pig tested) 20” value in test [4] (score 20, Omeprazole 10 mg/Kg, p.o.) is recorded as 1/3. Besides, the “Percentage of ulcer incidence (No. of rats showing ulcer/total No. of rats used)” value in test [5] (Omeprazole 20 mg/Kg) is listed as 50 (3/6) %.
